What all share (type): binding
What all share (design): KINOMEscan: ABL1(F317L)-phosphorylated / KINOMEscan: ABL1(H396P)-nonphosphorylated / KINOMEscan: ABL1(H396P)-phosphorylated / KINOMEscan: ABL1(M351T)-phosphorylated / KINOMEscan: ABL1(T315I)-phosphorylated / KINOMEscan: ABL1-nonphosphorylated / KINOMEscan: ABL1-phosphorylated / KINOMEscan: ACVR2A / KINOMEscan: ACVR2B / KINOMEscan: ADCK3 / KINOMEscan: ADCK4 / KINOMEscan: AKT1 / KINOMEscan: AKT3 / KINOMEscan: ALK / KINOMEscan: ARK5 / KINOMEscan: AURKA / KINOMEscan: AURKC / KINOMEscan: BIKE / KINOMEscan: BMPR1A / KINOMEscan: BMPR1B / KINOMEscan: BMX / KINOMEscan: BRK / KINOMEscan: BRSK1 / KINOMEscan: BRSK2 / KINOMEscan: CAMK1 / KINOMEscan: CAMK1D / KINOMEscan: CAMK1G / KINOMEscan: CAMK2A / KINOMEscan: CAMK2B / KINOMEscan: AAK1 / KINOMEscan: CAMK2D / KINOMEscan: CAMK2G / KINOMEscan: ABL1(F317I)-nonphosphorylated / KINOMEscan: ABL1(F317I)-phosphorylated / KINOMEscan: ABL1(F317L)-nonphosphorylated: unit: % Ctrl
What all share (settings): Compound Concentration 10 µM

Assay [1] deals with T1, panel of 442 kinases (Homo sapiens, UniProt P42336, H1047Y).
T1 construct: purchased KINOMEscan
T1 sequence (P42336 whole entry H1047Y): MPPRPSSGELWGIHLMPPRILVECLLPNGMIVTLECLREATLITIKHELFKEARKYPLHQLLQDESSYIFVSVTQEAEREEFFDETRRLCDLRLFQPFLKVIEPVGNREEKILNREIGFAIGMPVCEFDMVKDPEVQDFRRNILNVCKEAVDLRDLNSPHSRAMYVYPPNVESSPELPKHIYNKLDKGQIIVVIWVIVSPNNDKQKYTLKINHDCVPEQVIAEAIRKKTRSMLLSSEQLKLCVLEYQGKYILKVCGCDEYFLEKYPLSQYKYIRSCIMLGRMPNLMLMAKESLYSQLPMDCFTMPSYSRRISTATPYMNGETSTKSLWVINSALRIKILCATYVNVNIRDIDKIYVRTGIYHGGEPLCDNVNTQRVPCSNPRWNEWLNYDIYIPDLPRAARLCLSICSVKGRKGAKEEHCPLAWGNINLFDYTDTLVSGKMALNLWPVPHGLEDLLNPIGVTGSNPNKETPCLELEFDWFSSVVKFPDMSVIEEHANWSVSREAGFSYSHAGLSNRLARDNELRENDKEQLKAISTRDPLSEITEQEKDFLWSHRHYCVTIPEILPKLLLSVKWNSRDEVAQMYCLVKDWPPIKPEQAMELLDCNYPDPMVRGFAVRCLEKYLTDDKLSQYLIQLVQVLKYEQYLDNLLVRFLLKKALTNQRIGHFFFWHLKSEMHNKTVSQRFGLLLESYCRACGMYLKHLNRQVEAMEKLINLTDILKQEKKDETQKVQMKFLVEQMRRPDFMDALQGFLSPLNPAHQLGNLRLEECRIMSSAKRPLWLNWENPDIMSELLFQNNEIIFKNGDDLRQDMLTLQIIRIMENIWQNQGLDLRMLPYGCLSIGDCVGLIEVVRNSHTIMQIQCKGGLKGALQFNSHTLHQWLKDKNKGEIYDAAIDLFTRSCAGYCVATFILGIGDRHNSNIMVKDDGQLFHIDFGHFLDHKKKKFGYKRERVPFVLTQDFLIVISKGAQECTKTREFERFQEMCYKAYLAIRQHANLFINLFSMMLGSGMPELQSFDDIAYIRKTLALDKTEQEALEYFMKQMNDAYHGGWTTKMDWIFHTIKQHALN
The text has this:
(§1) We assessed the selectivity of members of this scaffold using the KINOMEscan methodology across a near comprehensive panel of 442 kinases [[18,27]].

For assay [2], the target named is T2, panel of 442 kinases (Homo sapiens, UniProt O14965).
T2 construct: purchased KINOMEscan
T2 sequence (O14965 1-403): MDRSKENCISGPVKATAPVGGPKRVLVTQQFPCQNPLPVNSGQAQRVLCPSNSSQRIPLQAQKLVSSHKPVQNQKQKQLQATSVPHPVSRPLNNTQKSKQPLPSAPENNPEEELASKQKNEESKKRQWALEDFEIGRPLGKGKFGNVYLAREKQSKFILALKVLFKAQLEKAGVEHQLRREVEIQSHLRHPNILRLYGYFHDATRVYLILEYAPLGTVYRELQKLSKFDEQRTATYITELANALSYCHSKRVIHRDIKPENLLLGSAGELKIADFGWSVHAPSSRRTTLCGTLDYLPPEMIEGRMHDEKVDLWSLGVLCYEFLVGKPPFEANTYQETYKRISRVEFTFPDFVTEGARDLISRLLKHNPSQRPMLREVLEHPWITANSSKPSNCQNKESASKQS
From the text: as §1

Assay [3] deals with T3, panel of 442 kinases (Homo sapiens, UniProt Q8TD08).
T3 construct: purchased KINOMEscan
T3 sequence (Q8TD08 1-544): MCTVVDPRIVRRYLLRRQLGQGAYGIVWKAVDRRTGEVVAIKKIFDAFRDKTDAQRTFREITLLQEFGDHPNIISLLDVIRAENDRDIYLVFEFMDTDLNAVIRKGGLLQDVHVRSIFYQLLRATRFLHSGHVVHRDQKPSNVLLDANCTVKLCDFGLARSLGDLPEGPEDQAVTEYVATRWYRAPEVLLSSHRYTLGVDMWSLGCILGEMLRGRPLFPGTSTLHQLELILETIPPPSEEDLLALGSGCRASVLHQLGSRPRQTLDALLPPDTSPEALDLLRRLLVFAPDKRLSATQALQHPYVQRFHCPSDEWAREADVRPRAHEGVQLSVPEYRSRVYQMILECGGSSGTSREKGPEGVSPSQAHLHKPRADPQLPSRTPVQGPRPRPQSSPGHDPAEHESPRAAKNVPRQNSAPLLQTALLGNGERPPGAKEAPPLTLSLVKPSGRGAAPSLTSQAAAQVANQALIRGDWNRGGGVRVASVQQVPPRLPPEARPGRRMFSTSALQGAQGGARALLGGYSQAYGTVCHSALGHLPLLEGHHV
From the text: as §1

On to `COc1cc(C(=O)N2CCC(N3CCN(C)CC3)CC2)ccc1Nc1ncc2c(n1)N(C1CCCC1)c1ccccc1C(=O)N2C` [Compound 25, 11-cyclopentyl-2-((2-methoxy-4-(4-(4-methylpiperazin-1-yl)piperidine-1-carbonyl)phenyl)amino)-5-methyl-5H-benzo[e]pyrimido[5,4-b][1,4]diazepin-6(11H)-one], for which the “KINOMEscan: PIK3CA(H1047Y)” value in assay [1] is reported as 100. The “KINOMEscan: AURKA” value in assay [2] amounted to 28. In assay [3], the “KINOMEscan: ERK8” value is reported as 99.

As to `COc1cc(C(=O)N2CCC(N3CCN(C)CC3)CC2)ccc1Nc1ncc2c(n1)N1CCc3cccc(c31)C(=O)N2C` [Compound 24], in assay [1], the “KINOMEscan: PIK3CA(H1047Y)” value is on record as 68. Also, in assay [2], the “KINOMEscan: AURKA” value is listed as 28.

On to `COc1cc(C(=O)N2CCC(N3CCN(C)CC3)CC2)ccc1Nc1ncc2c(n1)N(C)c1ccccc1C(=O)N2C` [15 (LRRK2-IN-1)], for which the “KINOMEscan: PIK3CA(H1047Y)” value in assay [1] is recorded as 71. Moreover, the “KINOMEscan: AURKA” value in assay [2] is on record as 1.2. Further, the “KINOMEscan: ERK8” value in assay [3] was 100.

Consider `CCOc1cc(C(=O)N2CCC(N3CCN(C)CC3)CC2)ccc1Nc1ncc2c(n1)N(C1CCCC1)c1ccccc1C(=O)N2C` [Compound 26], for which the “KINOMEscan: PIK3CA(H1047Y)” value in assay [1] stood at 76. In assay [2], the “KINOMEscan: AURKA” value was 100. Also, the “KINOMEscan: ERK8” value in assay [3] was 100.

Values taken from article PMC3914206.
